These are literature values, as cited in PMC4914392 (Bioorganic & medicinal chemistry, 2016).

Each structure is given as a SMILES string.

The conditions of this data set: ref [17].

Consider `Nc1nccc2c1nnn2[C@@H]1O[C@H](CO)[C@@H](O)[C@H]1O` [Compound 4, 8-aza-3-deazaadenosine], for which the “Fluorescence emission λmax (H2O)” value is 430 nm and the “Stokes shift (H2O)” value was 140 nm.
